Laboratory results from patent publication US6414031B1, “Bisoximether derivatives, methods and intermediate products for the production thereof, and their use for combating fungicidal pests and animal pests” (BASF Aktiengesellschaft, priority 1998, dated 2002).

Experiments:
Assay type in all cases: in vivo
Nephotettix cincticeps [1] = experiment: Action against Nephotettix cincticeps, contact action (filter disks); conditions: treated filter disks, adult leafhoppers, mortality after 24 hours
Description: (§1) The active ingredients were formulated
(§2) a. as a 0.1% strength solution in acetone or
(§3) b. as a 10% emulsion in a mixture of 70% by weight of cyclohexanone, 20% by weight of Nekanil® LN (Lutensol® AP6, wetter having emulsifying and dispersant action, based on ethoxylated alkylphenols) and 10% by weight of Wettol® EM (non-ionic emulsifier based on ethoxylated castor oil)
(§4) and diluted to give the desired concentration, using acetone in the case of a. and water in the case of b.
Filter disks (Ø 9 cm) were treated with 1 ml of aqueous formulations of the active ingredient and subsequently populated with five adult leafhoppers. The mortality was determined after 24 hours.

Puccinia recondita = experiment: Curative activity against Puccinia recondita on wheat (leaf rust); conditions: 1 ppm, wheat sprayed 1 day after infection, assessed after 7 days, untreated 90%
Description: (§5) The active ingredients, separately or together, were formulated as a 10% emulsion in a mixture of 70% by weight of […], 20% by weight of Nekanil® LN (Lutensol® AP6, wetter having emulsifying and dispersant action, based on ethoxylated alkylphenols) and 10% by weight of Wettol® EM (non-ionic emulsifier based on ethoxylated castor oil) and diluted with water to give the desired concentration.
Leaves of wheat seedling cv. “Kanzler” grown in pots were dusted with leaf rust spores (Puccinia recondita). The pots were then placed for 24 hours into a chamber with high atmospheric humidity (90 to 95%) and 20 to 22° C. During this time, the spores germinated and the germ tubes penetrated the leaf tissue. Next day, the infected plants were sprayed to runoff with an aqueous active ingredient preparation made with a stock solution consisting of 10% of active ingredient, 63% of cyclohexanone and 27% of emulsifier. After the spray coating had dried on, the test plants were grown in the greenhouse for 7 days at temperatures between 20 and 22° C. and a relative atmospheric humidity of 65 to 70%. The extent of rust development on the leaves was then determined.

Plasmopara viticola = experiment: Activity against Plasmopara viticola on grape leaves (long-term action); conditions: 16 ppm, grape leaves inoculated 7 days after spraying; untreated 85%
Description: as §5
Leaves of grapes cv. “Müller-Thurgaul” in pots were sprayed to runoff with aqueous active ingredient preparations made with a stock solution of 10% active ingredient, 63% cyclohexanone and 27% of emulsifier. In order to be able to assess the long-term action of the substances, the spray coating was allowed to dry off and the plants were then placed in the greenhouse for 7 days. Only then were the leaves inoculated with an aqueous zoospore suspension of Plasmopara viticola. Then, the vines were first placed for 48 hours into a water-vapor-saturated chamber at 24° C. and then for 5 days in the greenhouse at temperatures between 20 and 30° C. After this time, the plants were returned to a humid chamber for 16 hours to accelerate sporangiophore eruption for 16 hours. The extent of the disease development on the undersides of the leaves was then determined visually.

Aphis fabae = experiment: Action against Aphis fabae, contact action; conditions: infested dwarf beans (Vicia faba), mortality after 24 hours
Description: as §1, §2, §3, §4
Severely infested dwarf beans (Vicia faba) in the four-leaf stage were treated with aqueous formulations of active ingredient. The mortality rate was determined after 24 hours.

Nephotettix cincticeps [2] = experiment: Action against Nephotettix cincticeps (crop spray experiment); conditions: sprayed rice plants, adult leafhoppers, mortality after 24 hours
Description: as §1, §2, §3, §4
Rice plants grown in pots (plant height approximately 8 cm) were sprayed to runoff point with aqueous formulations of active ingredients. After drying, the plants were populated with 20 adult leafhoppers. The mortality was determined after 24 hours.

Compound | limit concentration (lowest concentration with 80 to 100% inhibition or mortality) (Nephotettix cincticeps [1]) [mg] | disease level (extent of rust development on the leaves) (Puccinia recondita) [%] | disease level (undersides of the leaves) (Plasmopara viticola) [%] | limit concentration (lowest concentration with 80 to 100% inhibition or mortality) (Aphis fabae) [ppm] | limit concentration (lowest concentration with 80 to 100% inhibition or mortality) (Nephotettix cincticeps [2]) [ppm]
CC=C(C(=O)OC)c1ccccc1CON=C(C)C(=NOC)C1CCC(C)CC1 (centres unmarked) [Compound I-4] | 0.04 |  |  |  | 
COC=C(C(=O)OC)c1ccccc1CON=C(C)C(=NOC)C1CCC(C)CC1 (centres unmarked) [Compound I-3] | 0.04 |  |  |  | 
CNC(=O)C(=NOC)c1ccccc1CON=C(C)C(=NOC)C1CCCCC1 [D] |  | 90 | 60 |  | 
COC=C(C(=O)OC)c1ccccc1CON=C(C)C(=NOC)C1CCCCC1 [A] | 0.2 | 90 |  | 100 | 400
CC=C(C(=O)OC)c1ccccc1CON=C(C)C(=NOC)C1CCCCC1 [B] | 0.2 |  |  |  | 400
CON=C(C(=O)OC)c1ccccc1CON=C(C)C(=NOC)C1CCCCC1 [C] |  |  |  | 100 | 
